Laboratory results as given in US20210189342A1, “COMPOSITIONS AND METHODS FOR MODULATING MONOCYTE AND MACROPHAGE INFLAMMATORY PHENOTYPES AND IMMUNOTHERAPY USES THEREOF” (Verseau Therapeutics, Inc., priority 2018, published 2021).

Tested on: CD37
Test: siRNA dose response, CD37 mRNA knockdown, bDNA Assay
Type: cell-based, human
Details: THP-1, 24 hr
Method: (§1) Dose response curves for siRNAs were generated in vitro using a variety of cell lines according to Table 4.
(§2) Briefly, cells were seeded in 96-well plates and reverse transfected with siRNA, Lipofectamine® 2000 (0.5 uL/well; ThermoFisher), and, in some cases, a reporter plasmid (50 ng/well). The reporter plasmid (psiCHECK™-2, Promega) encoded both firefly luciferase and the gene of interest fused to renilla luciferase; silencing of the gene of interest results in proportional silencing of renilla luciferase but leaves firefly luciferase unaffected as an internal control.
(§3) After 24 hr incubation at 37° C., mRNA knockdown was measured using an endpoint assay. For targets without a reporter plasmid, a branched DNA (bDNA) assay was performed according to the manufacturer's instructions (QuantiGene® Singleplex Gene Expression Assay, ThermoFisher) to measure both the target gene and GAPDH (housekeeping gene) mRNA. Data are plotted as siRNA concentration (nM) vs. remaining mRNA (ratio of target gene to GAPDH, normalized to mock siRNA-transfected cells). For targets with a reporter plasmid, a Dual-Glo® Luciferase Assay was performed according to the manufacturer's instructions (Promega) to measure firefly and renilla luciferase expression. Data are plotted as siRNA concentration (nM) vs. remaining mRNA (ratio of renilla to firefly luminescence, normalized to mock siRNA-transfected cells).
(§4) For all dose response curves, a 4-parameter logistic model was applied to determine the IC50 of each siRNA sequence (Table 5 and FIG. 2). Data shown in Table 5 and FIG. 2 represent the mean of quadruplicates, +/−standard deviation.

Substance	IC50
XD-09773: siRNA targeting CD37 (sense 5'-cgAccAAcGAcuccAcAAudTsdT-3'; antisense 5'-AUUGUGGAGUCGUUGGUCGdTsdT-3'; RNA with 2'-O-methyl and phosphorothioate modifications, case key not given here, as printed in the source, key not given here)	0.311 nM
XD-09774: siRNA targeting CD37 (sense 5'-ccAAcGAcuccAcaAuccudTsdT-3'; antisense 5'-AGGAUUGUGGAGUCGUUGGdTsdT-3'; RNA with 2'-O-methyl and phosphorothioate modifications, case key not given here, as printed in the source, key not given here)	0.129 nM
XD-09775: siRNA targeting CD37 (sense 5'-ccAcAAuccuAGAuAAGGudTsdT-3'; antisense 5'-ACCUuAUCuAGGAUUGUGGdTsdT-3'; RNA with 2'-O-methyl and phosphorothioate modifications, case key not given here, as printed in the source, key not given here)	1.6 nM
XD-09776: siRNA targeting CD37 (sense 5'-ggcuGcAcAAcAAccuuAudTsdT-3'; antisense 5'-AuAAGGUUGUUGUGcAGCCdTsdT-3'; RNA with 2'-O-methyl and phosphorothioate modifications, case key not given here, as printed in the source, key not given here)	1.32 nM
XD-09777: siRNA targeting CD37 (sense 5'-guucAuGAcGcucucGAuAdTsdT-3'; antisense 5'-uAUCGAGAGCGUcAUGAACdTsdT-3'; RNA with 2'-O-methyl and phosphorothioate modifications, case key not given here, as printed in the source, key not given here)	0.414 nM
XD-09778: siRNA targeting CD37 (sense 5'-cgGcucGcucGAuaccGuudTsdT-3'; antisense 5'-AACGGuAUCGAGCGAGCCGdTsdT-3'; RNA with 2'-O-methyl and phosphorothioate modifications, case key not given here, as printed in the source, key not given here)	11.4 nM
XD-09779: siRNA targeting CD37 (sense 5'-accAcccAcAAGAuuAuuudTsdT-3'; antisense 5'-AAAuAAUCUUGUGGGUGGUdTsdT-3'; RNA with 2'-O-methyl and phosphorothioate modifications, case key not given here, as printed in the source, key not given here)	< 0.005 nM

Tested on: TBXAS1
Test: siRNA dose response, TBXAS1 mRNA knockdown, bDNA Assay
Type: cell-based, human
Details: A549, 24 hr
Method: as §1, §2, §3, §4

Substance	IC50
XD-10490: siRNA targeting TBXAS1 (sense 5'-gccGAcAGcGuucuGuuuudTsdT-3'; antisense 5'-AAAAcAGAACGCUGUCGGCdTsdT-3'; RNA with 2'-O-methyl and phosphorothioate modifications, case key not given here, as printed in the source, key not given here)	0.573 nM
XD-10491: siRNA targeting TBXAS1 (sense 5'-cuGcAAGcGuuucuucGAAdTsdT-3'; antisense 5'-UUCGAAGAAACGCUUGcAGdTsdT-3'; RNA with 2'-O-methyl and phosphorothioate modifications, case key not given here, as printed in the source, key not given here)	0.048 nM
XD-10492: siRNA targeting TBXAS1 (sense 5'-gcccGGAuuuuGcccAAuAdTsdT-3'; antisense 5'-uAUUGGGcAAAAUCCGGGCdTsdT-3'; RNA with 2'-O-methyl and phosphorothioate modifications, case key not given here, as printed in the source, key not given here)	1.44 nM
XD-10493: siRNA targeting TBXAS1 (sense 5'-ggAuuuuGcccAAuAAGAAdTsdT-3'; antisense 5'-UUCUuAUUGGGcAAAAUCCdTsdT-3'; RNA with 2'-O-methyl and phosphorothioate modifications, case key not given here, as printed in the source, key not given here)	0.239 nM
XD-10494: siRNA targeting TBXAS1 (sense 5'-caAuAAGAAccGAgAcGAAdTsdT-3'; antisense 5'-UUCGUCUCGGUUCUuAUUGdTsdT-3'; RNA with 2'-O-methyl and phosphorothioate modifications, case key not given here, as printed in the source, key not given here)	0.049 nM
XD-10495: siRNA targeting TBXAS1 (sense 5'-gaAccGAGAcGAAcuGAAudTsdT-3'; antisense 5'-AUUcAGUUCGUCUCGGUUCdTsdT-3'; RNA with 2'-O-methyl and phosphorothioate modifications, case key not given here, as printed in the source, key not given here)	0.125 nM
XD-10496: siRNA targeting TBXAS1 (sense 5'-agAcGAAcuGAAugGcuuudTsdT-3'; antisense 5'-AAAGCcAUUcAGUUCGUCUdTsdT-3'; as printed in the source, key not given here)	0.061 nM

Tested on: EVI2B
Test: siRNA dose response, EVI2B mRNA knockdown, bDNA Assay
Type: cell-based, human
Details: A172, 24 hr
Method: as §1, §2, §3, §4

Substance	IC50
XD-10481: siRNA targeting EVI2B (sense 5'-cuuuGGGucAAccaAcAcAdTsdT-3'; antisense 5'-UGUGUUGGUUGACCcAAAGdTsdT-3'; RNA with 2'-O-methyl and phosphorothioate modifications, case key not given here, as printed in the source, key not given here)	0.169 nM
XD-10482: siRNA targeting EVI2B (sense 5'-caAccAAcAccAAuAGccAdTsdT-3'; antisense 5'-UGGCuAUUGGUGUUGGUUGdTsdT-3'; RNA with 2'-O-methyl and phosphorothioate modifications, case key not given here, as printed in the source, key not given here)	0.017 nM
XD-10483: siRNA targeting EVI2B (sense 5'-ccAucuGcccGuAcuucuAdTsdT-3'; antisense 5'-uAGAAGuACGGGcAGAUGGdTsdT-3'; RNA with 2'-O-methyl and phosphorothioate modifications, case key not given here, as printed in the source, key not given here)	3.27 nM
XD-10484: siRNA targeting EVI2B (sense 5'-ccAccAAAGucAuuuGucudTsdT-3'; antisense 5'-AGAcAAAUGACUUUGGUGGdTsdT-3'; RNA with 2'-O-methyl and phosphorothioate modifications, case key not given here, as printed in the source, key not given here)	0.014 nM
XD-10485: siRNA targeting EVI2B (sense 5'-gucAAAAAuucAccuAGGAdTsdT-3'; antisense 5'-UCCuAGGUGAAUUUUUGACdTsdT-3'; RNA with 2'-O-methyl and phosphorothioate modifications, case key not given here, as printed in the source, key not given here)	1.38 nM
XD-10486: siRNA targeting EVI2B (sense 5'-ggAuuuAucuuAGauAcuAdTsdT-3'; antisense 5'-uAGuAUCuAAGAuAAAUCCdTsdT-3'; RNA with 2'-O-methyl and phosphorothioate modifications, case key not given here, as printed in the source, key not given here)	0.225 nM
XD-10487: siRNA targeting EVI2B (sense 5'-cauAcuAAuuGGuguAcuudTsdT-3'; antisense 5'-AAGuAcACcAAUuAGuAUGdTsdT-3'; RNA with 2'-O-methyl and phosphorothioate modifications, case key not given here, as printed in the source, key not given here)	0.156 nM
XD-10488: siRNA targeting EVI2B (sense 5'-agcuAuAAucAucauuGuAdTsdT-3'; antisense 5'-uAcAAUGAUGAUuAuAGCUdTsdT-3'; RNA with 2'-O-methyl and phosphorothioate modifications, case key not given here, as printed in the source, key not given here)	2.55 nM
XD-10489: siRNA targeting EVI2B (sense 5'-cucccAAcucuGAucAAGAdTsdT-3'; antisense 5'-UCUUGAUcAGAGUUGGGAGdTsdT-3'; RNA with 2'-O-methyl and phosphorothioate modifications, case key not given here, as printed in the source, key not given here)	0.013 nM
